Measurements as given in ChEMBL document CHEMBL1201862, “PubChem BioAssay data set” (2004).
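How tested: cells in 96-well plates exposed to compound for 48 hours at five concentrations. GI50 is the concentration that inhibits growth by half.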 Calls of active or inactive are those of the source. No stated cut-off is given here; in the data, active = GI50 up to about 1.1 µM and inactive = higher.

Key:
Assay in all cases: NCI tumour cell line growth inhibition, 48 h
LXFL 529 = tested on: LXFL 529
RXF 631 = tested on: RXF 631
MDA-MB-435 = tested on: MDA-MB-435
BT-549 = tested on: BT-549
T47D = tested on: T47D
DU-145 = tested on: DU-145
MDA-N = tested on: MDA-N
Hs-578T = tested on: Hs-578T
MDA-MB-231 = tested on: MDA-MB-231

## O=C(Nc1ccc(F)cc1)C(=O)C(C(=O)c1ccccc1F)C1OC(=O)c2ccccc21 (stereo not drawn)
LXFL 529
  GI50: 34.8 µM (inactive)

## CCOCc1cc(=O)c2c(O)cc3c(c2o1)CCC(C)(C)O3
LXFL 529
  GI50: > 100 µM (inactive)
RXF 631
  GI50: > 100 µM (inactive)

## COc1cc(S(=O)(=O)Nc2ccc(-c3csc(N4C(=O)C(C)SC4c4cccc(Oc5ccccc5)c4)n3)cc2)ccc1Cl (stereo not drawn)
MDA-MB-435
  GI50: 32.6 µM (inactive)
BT-549
  GI50: 26.7 µM (inactive)
T47D
  GI50: 29.6 µM (inactive)
DU-145
  GI50: 35.3 µM (inactive)
MDA-N
  GI50: 27.7 µM (inactive)
Hs-578T
  GI50: 34 µM (inactive)

## COC(=O)C(=O)C(C(=O)Nc1cccc(C)c1C)C1Sc2ccccc2NC1=O (stereo not drawn)
LXFL 529
  GI50: > 25 µM (inactive)

## O=[S@@]1Nc2ccc(Br)cc2S1
LXFL 529
  GI50: 0.282 µM (active)
RXF 631
  GI50: 3.3 µM (inactive)

## CCN1CCCCC(=N\O)/C(=N/O)CCCC1
MDA-MB-435
  GI50: > 100 µM (inactive)
BT-549
  GI50: > 100 µM (inactive)
MDA-MB-231
  GI50: > 100 µM (inactive)
DU-145
  GI50: > 100 µM (inactive)
MDA-N
  GI50: > 100 µM (inactive)
Hs-578T
  GI50: > 100 µM (inactive)

## CCOC(=O)c1cccc(NC(=O)CBr)c1
MDA-MB-435
  GI50: 1.1 µM (active)
BT-549
  GI50: 1.91 µM (inactive)
T47D
  GI50: 1.7 µM (inactive)
MDA-MB-231
  GI50: 1.82 µM (inactive)
DU-145
  GI50: 1.82 µM (inactive)
MDA-N
  GI50: 1.4 µM (inactive)
Hs-578T
  GI50: 2.72 µM (inactive)

## CCOC(=O)C(Cc1c(-c2[nH]c3ccccc3c2CC(NC(=O)CNC(C)=O)C(=O)OCC)[nH]c2ccccc12)NC(=O)CNC(C)=O (stereo not drawn)
MDA-MB-435
  GI50: > 100 µM (inactive)
BT-549
  GI50: > 100 µM (inactive)
MDA-MB-231
  GI50: 16.5 µM (inactive)
DU-145
  GI50: > 100 µM (inactive)
MDA-N
  GI50: > 100 µM (inactive)
Hs-578T
  GI50: 32.6 µM (inactive)

## CCC(=O)c1c(NOC2OCC(OC(C)=O)C(OC(C)=O)C2OC(C)=O)nc(OC)n(C)c1=O (stereo not drawn)
LXFL 529
  GI50: > 100 µM (inactive)

## Clc1ccc(N/N=C(\c2ccccc2)c2ccccn2)nc1
MDA-MB-435
  GI50: 0.627 µM (active)
BT-549
  GI50: 1.85 µM (inactive)
T47D
  GI50: < 0.01 µM (active)
MDA-MB-231
  GI50: < 0.0187 µM (active)
DU-145
  GI50: 0.333 µM (active)
MDA-N
  GI50: 2.48 µM (inactive)
Hs-578T
  GI50: 0.456 µM (active)

## CC(=O)N(C(=O)CC(=O)N1N=C(C)C(/N=N/c2cccc([N+](=O)[O-])c2)C1=O)c1ccc(Cl)cc1 (stereo not drawn)
MDA-MB-435
  GI50: > 10 µM (inactive)
BT-549
  GI50: > 10 µM (inactive)
T47D
  GI50: > 10 µM (inactive)
MDA-MB-231
  GI50: > 10 µM (inactive)
DU-145
  GI50: > 10 µM (inactive)
MDA-N
  GI50: > 10 µM (inactive)
Hs-578T
  GI50: > 10 µM (inactive)

## COc1cc(/C=C(\C)[N+](=O)[O-])cc(OC)c1
MDA-MB-435
  GI50: 14.9 µM (inactive)
BT-549
  GI50: 19.2 µM (inactive)
T47D
  GI50: 6.47 µM (inactive)
MDA-MB-231
  GI50: 16.7 µM (inactive)
DU-145
  GI50: 18.7 µM (inactive)
MDA-N
  GI50: 13 µM (inactive)
Hs-578T
  GI50: 26.9 µM (inactive)

## C[C@H](C(=O)O)C(=O)NC(=O)N(Cc1ccccc1)N=O
LXFL 529
  GI50: > 100 µM (inactive)

## CN(C(=O)C12C3C4C1C1C2C3C41C(=O)C(C)(C)C)C(C)(C)C (stereo not drawn)
LXFL 529
  GI50: > 100 µM (inactive)
RXF 631
  GI50: > 100 µM (inactive)

## O=S(O)c1cc(Cl)cc(Cl)c1O
LXFL 529
  GI50: > 100 µM (inactive)

## c1ccc(Nc2nnc(CCCCCCCCc3nnc(Nc4ccccc4)o3)o2)cc1
MDA-MB-435
  GI50: > 100 µM (inactive)
BT-549
  GI50: > 100 µM (inactive)
MDA-MB-231
  GI50: > 100 µM (inactive)
DU-145
  GI50: > 100 µM (inactive)

## NC(CCOCCP(=O)(O)CCOCCC(N)C(=O)O)C(=O)O (stereo not drawn)
MDA-MB-435
  GI50: > 100 µM (inactive)
T47D
  GI50: > 100 µM (inactive)
MDA-MB-231
  GI50: > 100 µM (inactive)
DU-145
  GI50: > 100 µM (inactive)
Hs-578T
  GI50: > 100 µM (inactive)

## O=S(O)CCCCSSCCCCS(=O)(=O)S
LXFL 529
  GI50: 22.2 µM (inactive)
RXF 631
  GI50: 51.9 µM (inactive)

## COc1ccc2cc3[n+](cc2c1OC)CCc1cc2c(cc1-3)OCO2 [BERBERINE CHLORIDE]
MDA-MB-435
  GI50: 12.8 µM (inactive)
T47D
  GI50: 10.3 µM (inactive)
MDA-MB-231
  GI50: 36.1 µM (inactive)
DU-145
  GI50: > 44.5 µM (inactive)
Hs-578T
  GI50: 10 µM (inactive)
